{
  "source": "patent US20040038828A1",
  "about": "(priority 2002, published 2004)",
  "key": {"[1]": {"system": "Commong roundsel", "type": "in vivo", "settings": "Salinas plots; rate 400 lbs acres^−1"}, "[2]": {"system": "Little mallow", "type": "in vivo", "settings": "Watsonville plots; rate 400 lbs acres^−1"}, "[3]": {"system": "Fusarium oxysporum f. sp. lycopersici (isolate FP-7) spores", "assay": "Fusarium Tetrazolium Assay", "type": "cell-based", "settings": "24 hours of exposure; MTT absorbance at 570 nm", "method": "Fusarium Tetrazolium Assay: The evaluation of fungicidal activity was performed using a modified colorimetric assay (Mace, M. E., et al., Pesticide Biochemistry and Physiology, 38: 57-59 (1990)). Each candidate compound was tested using a suspension of Fusarium oxysporum f. sp. lycopersici (isolate FP-7) spores harvested from 10-day old petri plates using a 0.05% stock solution of Triton X-100 (referred to as FT stock). Harvested spores were suspended in Czapek-Dox Broth (CDB), prepared according to label instructions, at a ratio of 1:5 CDB:FT. The suspension was then standardized using a Beckman spectrophotometer (430 nm) which had been calibrated using a CDB blank. Compounds were then added to aliquots of the suspension to achieve active ingredient concentrations ranging from 0 ppm (untreated control) to 2000 ppm. Suspensions were incubated for 24 hr at 28° C. A 10% stock solution of MTT ((3-4,5-dimethylthiazole-2-yl)-2,5-diphenyl-2-2H-tetrazolium bromide) was then added to each aliquot; MTT is a vital stain that is commonly used to show if an organism is alive based on a color change). The suspensions were allowed to incubate for 4 hr, and then pelleted, drained, rinsed, and treated with 95% ethanol. The color change, which correlates with spore viability, was assessed using a Beckman spectrophotometer (570 nm) calibrated with 95% ethanol. Benlate® (benomyl) was used as an industry standard control. Each treatment was replicated six times and the assay for each compound was repeated. Regression analysis was performed using Sigma Plot 2000."}, "[4]": {"system": "native weed population", "type": "in vivo", "settings": "Salinas plots, rate 400 lbs acres^−1"}, "[5]": {"system": "Corn spurry", "type": "in vivo", "settings": "Watsonville plots; rate 400 lbs acres^−1"}, "[6]": {"system": "smooth pigweed (Amaranthus hybridus) seeds", "assay": "Herbicide screen, smooth pigweed petri plate bioassay", "type": "in vivo", "settings": "all ppm levels tested (up to 2000 ppm), 30 days", "method": "(§1) Herbicide Screen: Each compound was tested on seeds of smooth pigweed (Amaranthus hybridus) and barnyard grass (Echinocloa crus-galli), and on tubers of purple nutsedge (Cyperus rotundus), by exposing seeds or tubers to a specific concentration of the test compound. Seeds were surface sterilized (by rinsing in 2% bleach solution for 90 seconds followed by two rinses with sterile water) and 20 seeds placed on sterile filter paper (Whatman #5) in a 10-cm petri plate for each of six replicates for each weed species tested. Twenty ml of compound of concentrations ranging from 0 ppm (sterile water control) to 2000 ppm was added to the petri dishes. Plates were stored at 30° C. in an dark incubator. Seed germination was monitored at 24 hr intervals for 30 days. Petri plate bioassays were repeated twice for each compound. Field collected purple nutsedge tubers were placed in 500 g of field soil with soil moisture adjusted to 5%. Five nutsedge tubers were planted in each 10 cm pot at a depth of 2.5 cm. Six replicate pots of each concentration, ranging from 0 ppm (water control) to 2000 ppm, were treated using 100 ml as a soil drench. Pots were tarped with co-extruded black-on-white polyethylene mulch for 7 days. After the tarps were removed, the number of emerged nutsedge shoots was recorded on a weekly basis for 60 days."}, "[7]": {"system": "native weed population", "type": "in vivo"}, "[8]": {"system": "Annual sowthistle", "type": "in vivo", "settings": "Watsonville plots; rate 400 lbs acres^−1"}, "[9]": {"system": "Southern brassbuttons", "type": "in vivo", "settings": "Watsonville plots; rate 400 lbs acres^−1"}, "[10]": {"system": "Shepherd-spurse", "type": "in vivo", "settings": "Salinas plots; rate 400 lbs acres^−1"}, "[11]": {"system": "barnyard grass (Echinocloa crus-galli) seeds", "assay": "Herbicide screen, barnyard grass petri plate bioassay", "type": "in vivo", "settings": "all ppm levels tested (up to 2000 ppm), 30 days", "method": "as §1"}, "[12]": {"system": "Verticillium dahliea", "type": "in vivo", "settings": "Watsonville; preplant fumigation, 400 pound per acre"}, "[13]": {"system": "Henbet", "type": "in vivo", "settings": "Salinas plots; rate 400 lbs acres^−1"}, "[14]": {"system": "Redstem filaree", "type": "in vivo", "settings": "Watsonville plots; rate 400 lbs acres^−1"}, "[15]": {"system": "Common chickweed", "type": "in vivo", "settings": "Watsonville plots; rate 400 lbs acres^−1"}, "[16]": {"system": "root-knot nematode eggs (Meliodogyne incognita)", "assay": "Nematicide screen, root-knot nematode galling assay on tomato", "type": "in vivo", "settings": "0 to 2000 ppm soil drench, tarped 14 days, seedlings assessed 30 days after transplant", "method": "Nematicide Screen: Efficacy as a nematicide was evaluated by infesting field soil with a standardized quantity of root-knot nematode eggs (Meliodogyne incognita). Soil was partitioned into 10 cm pots containing 500 g of soil each with soil moisture adjusted to 5%. Pots were treated with compounds ranging from 0 ppm to 2000 ppm of active ingredient in a 100-ml soil drench. Six replicate pots of each concentration were treated and tarped with co-extruded black-on-white polyethylene mulch for 14 days. After tarps were removed, a single tomato seedling was transplanted into each pot. Seedlings were removed 30 days later and assessed for root galling, root fresh weight, root dry weight, and number of eggs produced per gram of root tissue."}, "[17]": {"system": "purple nutsedge (Cyperus rotundus) tubers", "assay": "Herbicide screen, nutsedge greenhouse assay (soil drench in pots)", "type": "in vivo", "settings": "for level eliminating the germination of nutsedge: 100 ml soil drench, 500 g soil, tarped 7 days, shoots counted for 60 days", "method": "as §1"}},
  "note": "“Also recorded” adds a separate entry of the source. Like-named read-outs stand apart in the source and are kept apart here.",
  "data": [
    {"smiles": "OCCBr", "note": "[2-bromoethanol]", "values": [
      {"measurement": "weed biomass, Commong roundsel", "setting": "[1]", "value": 0.3, "unit": "gram/m^2"},
      {"measurement": "weed biomass, Little mallow", "setting": "[2]", "value": 0.2, "unit": "gram/m^2"},
      {"measurement": "fungicidal activity (in words)", "setting": "[3]", "value": "excellent fungicidal activity"},
      {"measurement": "weed biomass, Other weeds", "setting": "[4]", "value": 21.5, "unit": "gram/m^2"},
      {"measurement": "Total weed biomass", "setting": "[4]; same letter = not significantly different at P < 0.05", "value": 46.7, "unit": "a gram/m^2"},
      {"measurement": "weed biomass, Corn spurry", "setting": "[5]", "value": 1.1, "unit": "gram/m^2"},
      {"measurement": "germination of pigweed seeds", "setting": "[6]", "value": "eliminated at all ppm levels tested"},
      {"measurement": "control of native weeds (in words)", "setting": "[7]; Watsonville", "value": "control of most weeds"},
      {"measurement": "weed biomass, Other weeds", "setting": "[7]; Watsonville plots, rate 400 lbs acres^−1", "value": 3.6, "unit": "gram/m^2"},
      {"measurement": "Total weed biomass", "setting": "[7]; Watsonville plots, rate 400 lbs acres^−1, same letter = not significantly different at P <0.05", "value": 13.7, "unit": "a gram/m^2"},
      {"measurement": "weed biomass, Annual sowthistle", "setting": "[8]", "value": 0.0, "unit": "gram/m^2"},
      {"measurement": "weed biomass, Southern brassbuttons", "setting": "[9]", "value": 1.0, "unit": "gram/m^2"},
      {"measurement": "weed biomass, Shepherd-spurse", "setting": "[10]", "value": 11.3, "unit": "gram/m^2"},
      {"measurement": "germination of barnyard grass seeds", "setting": "[11]", "value": "eliminated at all ppm levels tested"},
      {"measurement": "reduction of the population of Verticillium dahliea", "setting": "[12]", "value": 74, "unit": "%"},
      {"measurement": "weed biomass, Henbet", "setting": "[13]", "value": 9.4, "unit": "gram/m^2"},
      {"measurement": "weed biomass, Redstem filaree", "setting": "[14]", "value": 0.3, "unit": "gram/m^2"},
      {"measurement": "weed biomass, Common chickweed", "setting": "[15]", "value": 1.6, "unit": "gram/m^2"},
      {"measurement": "root gall severity on tomato", "setting": "[16]", "value": "Only the untreated control showed galling of any kind"},
      {"measurement": "level eliminating the germination of nutsedge", "setting": "[17]", "value": "≥ 1000", "unit": "ppm"},
      {"measurement": "nutsedge germination", "setting": "[17]; at the 500 ppm level", "value": "approximately 50%"},
      {"measurement": "soil applied equivalent of the rate eliminating nutsedge germination", "setting": "[17]; equivalent of the 1000 ppm drench level", "value": 200, "unit": "ppm"}
    ]},
    {"smiles": "OCCI", "note": "[2-iodoethanol]", "values": [
      {"measurement": "concentration effective at reducing cell viability to levels achieved with Benlate (100 ppm)", "setting": "[3]", "value": "100-500 ppm"},
      {"measurement": "fungicidal activity (in words)", "setting": "[3]", "value": "comparable to the Benlate® control; also recorded: excellent fungicidal activity"},
      {"measurement": "germination of pigweed seeds", "setting": "[6]", "value": "eliminated at all ppm levels tested"},
      {"measurement": "germination of barnyard grass seeds", "setting": "[11]", "value": "eliminated at all ppm levels tested"},
      {"measurement": "root gall severity on tomato", "setting": "[16]", "value": "galling decreases with increased concentration"},
      {"measurement": "level eliminating the germination of nutsedge", "setting": "[17]", "value": "≥ 500", "unit": "ppm"}
    ]}
  ]
}
